Reference: patent US8884011B2, “Nucleotide analogues as precursor molecules for antivirals” (Centre National de la Recherche Scientifique-CNRS, priority 2006, dated 2014)
Like-named read-outs stand apart in the source and are kept apart here.

Columns and labels:
wild-type RT of HIV-1 = wild-type RT of HIV-1 (Human immunodeficiency virus type 1 group M subtype B, UniProt P04585); assay: biochemical; type: biochemical; details: wild-type RT; for Selectivity = (kpol/Kd) natural nucleotide/(kpol/Kd) nucleotide analogue (discrimination): versus dATP
K65R mutant RT of HIV-1 [1] = target: K65R mutant RT of HIV-1 (Human immunodeficiency virus type 1 group M subtype B, UniProt P04585, K652R); assay: biochemical; type: biochemical; details: K65R mutant RT; for Selectivity = (kpol/Kd) natural nucleotide/(kpol/Kd) nucleotide analogue: versus dATP
K65R mutant RT of HIV-1 [2] = assay: biochemical; type: biochemical
[3] = Cytostatic effect on parent hepatoma cell line HepG2 (MTS method); details: human, exponentially growing HepG2 cells
HBV [4] = assay: Anti-HBV test in infected HepAD38 cells (intracellular viral DNA by Q-PCR); type: cell-based
Protocol: These are hepatoma cells that have been stably transfected with a cDNA copy of the pregenomic RNA of wild-type virus. Withdrawal of tetracycline from the culture medium results in the initiation of viral replication. This offers the advantage, in contrast to the Hep G2.2.15 cell lines commonly used, that there is no, or very limited background viral DNA synthesis. Cells were cultured at 37° C. in a humidified 5% CO2/air atmosphere in seeding medium, DMEM/Ham's F12 (50/50) supplemented with 10% (v/v) heat-inactivated fetal calf serum, 100 IU/ml penicillin, 50 μg/ml streptomycin, 100 Ξg/ml kanamycin, 400 μg/ml G418, and 0.3 μg/ml tetracycline. […] After 2-3 days the cultures were induced for viral production by washing with prewarmed PBS and were fed with […] assay medium (seeding medium without tetracycline and G418) with or without the antiviral compounds. Medium was changed after 3 days. The antiviral effect was quantified by measuring levels of intracellular viral DNA at day 6 post-induction, by a real time quantitative PCR (Q-PCR) method. Total cellular DNA was extracted from the cells by means of a commercial kit. […] The reaction was analyzed using a SDS 7000. A plasmid containing the full length insert of the HBV genome was used to prepare the standard curve. The amount of viral DNA produced in treated cultures was expressed as a percentage of the mock treated samples. […] The cytostatic effect of the various compounds was assessed employing the parent hepatoma cell line HepG2. The effect of the compounds on exponentially growing HepG2 cells was evaluated by means of the MTS method. Briefly, cells were seeded at a density of 3000/well (96 well plate) and were allowed to proliferate for 3 days in the absence or presence of compounds after which the optical density was measured with a 96-well plate reader and cell density was determined.

HBV [5] = assay: Anti-HBV test in infected Huh7 cells; type: cell-based; details: Hepatitis B virus, Huh-7, read-out: EC50 (μM) HBV
[6] = Cytotoxicity by MTT test in cultures of uninfected CMSP; details: human
HIV-1-LAI = assay: Anti-HIV test in CMSP cultures infected by HIV-1-LAI (RT activity in supernatants); type: cell-based

SMILES	kpol (wild-type RT of HIV-1) [s⁻¹]	kpol/Kd (wild-type RT of HIV-1)	Selectivity = (kpol/Kd) natural nucleotide/(kpol/Kd) nucleotide analogue (discrimination) (wild-type RT of HIV-1)	Kd (wild-type RT of HIV-1; read-out: Kd) [µM]	Kd (K65R mutant RT of HIV-1 [1]) [µM]	kpol (K65R mutant RT of HIV-1 [1]) [s⁻¹]	kpol/Kd (K65R mutant RT of HIV-1 [1])	Selectivity = (kpol/Kd) natural nucleotide/(kpol/Kd) nucleotide analogue (K65R mutant RT of HIV-1 [1])	reduction in the incorporation velocity of the nucleotide (factor) (K65R mutant RT of HIV-1 [2])	CC50 at 3 days [3] [µM]	SI selectivity index (TC50/EC50) (HBV [4]; HBV, HepAD38 cells)	EC50 (HBV [4]; Hepatitis B virus, 144 h, infected HepAD38 cells, 50% reduction of viral DNA, day 6 post-induction) [µM]	EC50 (HBV [5]) [µM]	CC50 at 7 days [6] [µM]	IT (selectivity index, TC50/EC50) (HIV-1-LAI; HIV-1 (LAI), CMSP)	EC50 (HIV-1-LAI; Human immunodeficiency virus 1, 168 h, read-out: EC50 (μM) HIV-1 (LAI)) [µM]	Selectivity = (kpol/Kd) natural nucleotide/(kpol/Kd) nucleotide analogue (discrimination) (wild-type RT of HIV-1; listed as PMPADP)	Kd (wild-type RT of HIV-1; unit inferred, read-out: affinities of the RT for the analogues (Kd)) [µM]
Nc1ncnc2c1ncn2CCOCP(=O)(O)OP(=O)(O)OP(=O)(O)O [PMEApp, PMEA diphosphate]	6.8	0.86	7.8	7.9	7.7	0.75	0.1	16.9	9	–	–	–	–	–	–	–	–	–
CC(Cn1cnc2c(N)ncnc21)OCP(=O)(O)O (stereo not drawn) [PMPA, 9-(2-(phosphonomethoxy)propyl)adenine]	–	–	–	–	–	–	–	–	–	> 35	>12	2.88	4	> 100	>77	1.3	–	–
C[C@@H](Cn1cnc2c(N)ncnc21)OCP(=O)(O)OP(=O)(O)OP(=O)(O)O [PMPApp, PMPA diphosphate]	7	0.3	22.3	23	18	0.32	0.017	99.4	22	–	–	–	–	–	–	–	22	–
Nc1ncnc2c1ncn2[C@H]1C[C@H](O)[C@@H](COP(=O)(O)OP(=O)(O)OP(=O)(O)O)O1 [dATP]	50.16	6.71	–	7.47	6.89	11.63	1.69	–	–	–	–	–	–	–	–	–	–	7.5
